The assay relates to T cells isolated from mouse spleens. The experiment in a line: T cell proliferation inhibition (CFSE flow cytometry, anti-CD3/anti-CD28 stimulation). Format: cell-based. Conditions: mouse spleen T cells, 3 days; for inhibition at 0.01 µM / inhibition at 0.1 µM / inhibition at 1 µM / inhibition at 10 µM / inhibition at 30 µM / inhibition at 50 µM: Mus musculus, T-cell, 72 h, read-out: Proliferation inhibition rate (%). The procedure:
To verify the T cell proliferation inhibitory effect of the compounds according to the present invention, the following experiment was performed based on flow cytometry analysis using carboxyfluorescein diacetate succinimidyl ester (CFSE), a fluorescent dye that binds to intracellular molecules via covalent bonds.
Spleens were extracted from 7-week-old C57BL/6 mice, ground, and then separated into single cells using a strainer (40 μm pore size, SPL). Red blood cells were removed using ACK (Ammonium-Chloride-Potassium) lysis buffer to isolate white blood cells.
Finally, using a MACS Magnetic Stand and LS column, T cells were isolated from the spleen.
The T cells isolated from the spleen were resuspended in 1 mL of free medium (RPMI-1640+200 U/mL penicillin+200 μg/mL streptomycin), and 0.3 μL of CFSE (10 mM) was added. The mixture was incubated at 37° C. for 5 minutes.
Free medium (10 mL) was added to stop the reaction, and the cells were centrifuged to obtain the cell pellet.
RPMI 1640 medium containing 10% FBS, 100 U/mL penicillin, 100 μg/mL streptomycin, and resuspended the cells. The cells were then seeded into a 96-well plate at a density of 2×10^5 cells per well and activated with CD3 and CD28 antibodies (0.5 μg/mL each) to activate T cells.
The compound diluted in DMSO was added at concentrations of 10 nM, 100 nM, 1 μM, 10 μM, 30 μM, and 50 μM, with three wells per concentration, and cultured at 37° C. and 5% CO2 for three days. The cells were then analyzed using a FACS Canto instrument.
The proliferation inhibition rate (%) was calculated using the following formula: […]

On to `CCNCCCCCCCCCCCCNC(=O)c1cccnc1N` [Compound 98, 2-amino-N-(12-(ethylamino)dodecyl)nicotinamide], for which the inhibition at 0.01 µM (compound 10 nM) was -4.82%. Besides, the inhibition at 0.1 µM (compound 100 nM) is -3.95%. Further, the inhibition at 1 µM (compound 1 μM) came to 100%. The inhibition at 10 µM (compound 10 μM) was 100%. Besides, under “compound 30 μM”, the inhibition at 30 µM was determined as 100%. Besides, for the setting “compound 50 μM”, the inhibition at 50 µM turned out to be 100%.
With `CN(CCCCCCCCCCCCNC(=O)c1cccnc1N)C(C)(C)C` [Compound 53, 2-Amino-N-(12-(tert-butyl(methyl)amino)dodecyl) nicotinamide], the “Proliferation inhibition rate (%)” value is reported as −26.59% (compound 10 nM); 100.00% (compound 100 nM); 100.00% (compound 1 μM); 100.00% (compound 10 μM); 100.00% (compound 30 μM); 100.00% (compound 50 μM).
Take `Nc1ncccc1C(=O)NCCCCCCCCCCCCN1CCN(C=O)CC1` [Compound 97, 2-amino-N-(12-(4-formylpiperazin-1-yl)dodecyl) nicotinamide]: the “Proliferation inhibition rate (%)” value is, setting by setting: (compound 10 nM) 3.51%; (compound 100 nM) 40.64%; (compound 1 μM) 100.00%; (compound 10 μM) 100.00%; (compound 30 μM) 100.00%; (compound 50 μM) 100.00%.
Consider `Nc1ncccc1C(=O)NCCCCCCCCCCCCN1CCc2ccccc2C1` [Compound 17, 2-Amino-N-(12-(3,4-dihydroisoquinolin-2 (1H)-yl)dodecyl) nicotinamide], for which the “Proliferation inhibition rate (%)” value reads like this: (compound 10 nM, listed as PBK-2024-004, 0.01 µM) 0.00%; (compound 100 nM, listed as PBK-2024-004, 0.1 µM) −14.00%; (compound 1 μM, listed as PBK-2024-004, 1 µM) 100.00%; (compound 10 μM, listed as PBK-2024-004, 10 µM) 100.00%.
In the case of `CN1CCN(CCCCCCCCCCCCNC(=O)c2c(Cl)cncc2Cl)CC1` [Compound 201, 3,5-Dichloro-N-(12-(4-methylpiperazin-1-yl)dodecyl)isonicotinamide], the inhibition at 0.01 µM (compound 10 nM) was determined as 7.24%. For the same compound, the inhibition at 0.1 µM (compound 100 nM) turned out to be 6.66%. Also, the inhibition at 1 µM (compound 1 μM) was 8.54%. Besides, the inhibition at 10 µM (compound 10 μM) turned out to be 78.4%. Besides, the inhibition at 30 µM (compound 30 μM) was found to be 100%. The inhibition at 50 µM (compound 50 μM) was 100%.
Turning to `C[C@@H]1CN(CCCCCCCCCCCCNC(=O)c2cccnc2N)C[C@H](C)O1` [Compound 110, 2-amino-N-(12-((2S,6R)-2,6-dimethylmorpholino)dodecyl)nicotinamide], the inhibition at 0.01 µM (compound 10 nM) was -36.7%. For the same compound, the inhibition at 0.1 µM (compound 100 nM) came to 100%. Besides, the inhibition at 1 µM (compound 1 μM) is 100%. Also, where the note is “compound 10 μM”, the inhibition at 10 µM amounted to 100%. Also, the inhibition at 30 µM (compound 30 μM) was found to be 100%. The inhibition at 50 µM (compound 50 μM) worked out at 100%.
On to `Nc1ncccc1C(=O)NCCCCCCCCCCCCN1CCC(C(F)F)CC1` [Compound 107, 2-Amino-N-(12-(4-(difluoromethyl)piperidin-1-yl)dodecyl)nicotinamide], for which the inhibition at 0.01 µM (compound 10 nM) is -35.2%. Moreover, under “compound 100 nM”, the inhibition at 0.1 µM worked out at 100%. For the same compound, where the note is “compound 1 μM”, the inhibition at 1 µM came out at 100%. The inhibition at 10 µM (compound 10 μM) amounted to 100%. For the same compound, where the note is “compound 30 μM”, the inhibition at 30 µM turned out to be 100%. Also, the inhibition at 50 µM (compound 50 μM) is 100%.
For the compound `CN1CCN(CCCCCCCCCCCCNC(=O)c2ccc(C(F)(F)F)cc2N)CC1` [Compound 213, 2-Amino-N-(12-(4-methylpiperazin-1-yl)dodecyl)-4-(trifluoromethyl)benzamide], the inhibition at 0.01 µM (compound 10 nM) is -0.14%. For the same compound, the inhibition at 0.1 µM (compound 100 nM) amounted to 6.37%. In addition, the inhibition at 1 µM (compound 1 μM) is 8.54%. Further, the inhibition at 10 µM (compound 10 μM) was 100%. Besides, for the setting “compound 30 μM”, the inhibition at 30 µM came to 100%. For the setting “compound 50 μM”, the inhibition at 50 µM is 100%.
On to `CC(C)(C)OC(=O)N[C@@H]1CCCN(CCCCCCCCCCCCNC(=O)c2cccnc2N)C1` [Compound 117, tert-butyl-(R)-(1-(12-(2-aminonicotinamido)dodecyl)piperidin-3-yl) carbamate], for which the “Proliferation inhibition rate (%)” value reads like this: (compound 10 nM) −15.79%; (compound 100 nM) 100.00%; (compound 1 μM) 100.00%; (compound 10 μM) 100.00%; (compound 30 μM) 100.00%; (compound 50 μM) 100.00%.
As for `CS(=O)(=O)c1ncccc1C(=O)NCCCCCCCCCCCCF` [Compound 67, N-(12-fluoro-dodecyl)-2-methylsulfonyl-nicotinamide], under “compound 10 nM”, the inhibition at 0.01 µM came out at 0%. The inhibition at 0.1 µM (compound 100 nM) is 0%. Besides, where the note is “compound 1 μM”, the inhibition at 1 µM worked out at 0%. For the setting “compound 10 μM”, the inhibition at 10 µM was -3.83%. Moreover, the inhibition at 30 µM (compound 30 μM) turned out to be 73.8%. Further, for the setting “compound 50 μM”, the inhibition at 50 µM came out at 100%.
With `N#CCCCCCCCCCCNC(=O)c1ccccc1Br` [Compound 77, 2-Bromo-N-(10-cyano-decyl)benzamide], the inhibition at 0.01 µM (compound 10 nM) was 1.51%. Besides, the inhibition at 0.1 µM (compound 100 nM) is -3.97%. Also, the inhibition at 1 µM (compound 1 μM) was 15.3%. Moreover, the inhibition at 10 µM (compound 10 μM) came to 2.09%. In addition, where the note is “compound 30 μM”, the inhibition at 30 µM is 3.8%. Also, the inhibition at 50 µM (compound 50 μM) stood at 32.2%.
With `CN1CCN(CCCCCCCCCCCCNC(=O)c2ccccc2-c2ccccc2)CC1` [Compound 194, N-(12-(4-methylpiperazin-1-yl)dodecyl)-[1,1′-biphenyl]-2-carboxamide], the inhibition at 0.01 µM (compound 10 nM) was -4.09%. Besides, the inhibition at 0.1 µM (compound 100 nM) is -2.4%. Moreover, under “compound 1 μM”, the inhibition at 1 µM is -1.68%. For the same compound, the inhibition at 10 µM (compound 10 μM) worked out at 100%. The inhibition at 30 µM (compound 30 μM) stood at 100%. Also, the inhibition at 50 µM (compound 50 μM) was 100%.
Take `CN1CCN(CCCCCCCCCCCCNC(=O)c2ccnc(-c3ccccn3)c2)CC1` [Compound 195, N-(12-(4-methylpiperazin-1-yl)dodecyl)-[2,2′-bipyridine]-4-carboxamide]: where the note is “compound 10 nM”, the inhibition at 0.01 µM stood at 1.77%. Under “compound 100 nM”, the inhibition at 0.1 µM was found to be 2.81%. Also, where the note is “compound 1 μM”, the inhibition at 1 µM is -7.83%. In addition, for the setting “compound 10 μM”, the inhibition at 10 µM turned out to be 100%. Besides, the inhibition at 30 µM (compound 30 μM) was 100%. Further, the inhibition at 50 µM (compound 50 μM) was 100%.
`C[C@@H](C(=O)O)N(C=O)CCCCCCCCCCCCNC(=O)c1cccnc1N` [Compound 130, N-(12-(2-aminonicotinamido)dodecyl)-N-formylalanine]: the inhibition at 0.01 µM (compound 10 nM) is -4.33%. The inhibition at 0.1 µM (compound 100 nM) was -5.22%. Besides, the inhibition at 1 µM (compound 1 μM) worked out at 13.6%. The inhibition at 10 µM (compound 10 μM) came out at 85.4%. Further, for the setting “compound 30 μM”, the inhibition at 30 µM turned out to be 100%. Moreover, the inhibition at 50 µM (compound 50 μM) was found to be 100%.
Take `CN1CCN(CCCCCCCCCCCCNC(=O)c2ccncc2Cl)CC1` [Compound 199, 3-Chloro-N-(12-(4-methylpiperazin-1-yl)dodecyl)isonicotinamide]: the inhibition at 0.01 µM (compound 10 nM) came to 0%. The inhibition at 0.1 µM (compound 100 nM) stood at 0%. For the same compound, where the note is “compound 1 μM”, the inhibition at 1 µM is 0%. Also, the inhibition at 10 µM (compound 10 μM) was 40%. Moreover, the inhibition at 30 µM (compound 30 μM) was 100%. The inhibition at 50 µM (compound 50 μM) was found to be 100%.
On to `Nc1ncccc1C(=O)NCCCCCCCCCCCCn1ccc2c(Cl)c(I)cnc21` [Compound 109, 2-Amino-N-(12-(4-chloro-5-iodo-1H-pyrrolo[2,3-b]pyridin-1-yl)dodecyl)nicotinamide], for which the inhibition at 0.01 µM (compound 10 nM) came out at 0.15%. Under “compound 100 nM”, the inhibition at 0.1 µM was determined as 8.48%. For the same compound, the inhibition at 1 µM (compound 1 μM) was 20.9%. Also, where the note is “compound 10 μM”, the inhibition at 10 µM worked out at 100%. In addition, the inhibition at 30 µM (compound 30 μM) was determined as 100%. Moreover, where the note is “compound 50 μM”, the inhibition at 50 µM came out at 100%.

For the origin of these results see US20260183274A1, “PDK1 REGULATORY COMPOUND AND COMPOSITION CONTAINING THE SAME” (PROVIBIO CO., LTD., priority 2024, published 2026).
